Data from ChEMBL document CHEMBL3286286, “2-(2-Arylphenyl)benzoxazole As a Novel Anti-Inflammatory Scaffold: Synthesis and Biological Evaluation” (ACS Med Chem Lett, 2014).

molecular target: T1, Prostaglandin G/H synthase 1 (Ovis aries) (UniProt P05979); experiment: Inhibition of ovine COX1 using arachidonic acid as substrate at 10 uM; conditions: not given
T1 sequence (whole entry): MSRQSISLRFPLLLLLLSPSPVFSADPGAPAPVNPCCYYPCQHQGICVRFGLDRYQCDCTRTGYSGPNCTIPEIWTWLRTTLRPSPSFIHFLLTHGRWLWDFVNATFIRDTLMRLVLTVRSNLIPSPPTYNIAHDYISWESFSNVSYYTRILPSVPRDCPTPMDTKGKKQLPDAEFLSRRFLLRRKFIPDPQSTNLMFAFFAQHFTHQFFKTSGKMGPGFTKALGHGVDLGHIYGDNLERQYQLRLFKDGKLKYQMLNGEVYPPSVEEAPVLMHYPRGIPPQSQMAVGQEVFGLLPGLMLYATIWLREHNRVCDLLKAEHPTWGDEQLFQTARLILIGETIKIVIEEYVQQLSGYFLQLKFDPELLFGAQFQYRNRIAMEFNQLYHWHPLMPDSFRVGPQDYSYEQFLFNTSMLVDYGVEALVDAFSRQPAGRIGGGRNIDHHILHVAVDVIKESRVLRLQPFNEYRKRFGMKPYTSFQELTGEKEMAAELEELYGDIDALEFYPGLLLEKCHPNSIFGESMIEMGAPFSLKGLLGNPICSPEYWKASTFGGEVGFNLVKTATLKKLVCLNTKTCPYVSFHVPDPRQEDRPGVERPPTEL

Structure (SMILES)	inhibition [%]
FC(F)(F)c1ccc(-c2ccccc2-c2nc3ccccc3o2)cc1	3.45
O=Cc1ccc(-c2ccccc2-c2nc3ccccc3o2)cc1	6.58
CS(=O)(=O)c1ccc(-c2ccccc2-c2nc3ccccc3o2)cc1	10.8
c1ccc(-c2ccccc2-c2nc3ccccc3o2)cc1	24
N#Cc1ccc(-c2ccccc2-c2nc3ccccc3o2)cc1	8.46
Clc1cc(-c2ccccc2-c2nc3ccccc3o2)ccc1OCc1ccccc1	10.3
CSc1ccc(-c2ccccc2-c2nc3ccccc3o2)cc1	4.07
COc1cccc(-c2ccccc2-c2nc3ccccc3o2)c1OC	74.9
COc1ccc(-c2ccccc2-c2nc3ccccc3o2)cc1OC1CCCC1	17.1

Continued, values first:

inhibition [%]	Structure (SMILES)
1.65	Fc1ccc(-c2ccccc2-c2nc3ccccc3o2)cc1
2.19	CC(C)Oc1ccc(-c2ccccc2-c2nc3ccccc3o2)cc1Cl
7.56	Oc1ccc(-c2ccccc2-c2nc3ccccc3o2)cc1Cl
19.1	COc1ccc(-c2ccccc2-c2nc3ccccc3o2)cc1
58.2	COc1ccc(-c2ccccc2-c2nc3ccccc3o2)cc1OC
6.45	COc1ccc(-c2ccccc2-c2nc3ccccc3o2)cc1Cl

test system: not listed separately; experiment: Selectivity index, ratio of IC50 for ovine COX1 to IC50 for human recombinant COX2; conditions: not given

Ratio IC50	Structure (SMILES)
113	Oc1ccc(-c2ccccc2-c2nc3ccccc3o2)cc1Cl
33.6	CS(=O)(=O)c1ccc(-c2ccccc2-c2nc3ccccc3o2)cc1
69.8	COc1ccc(-c2ccccc2-c2nc3ccccc3o2)cc1Cl

test system: Rattus norvegicus; experiment: Antiinflammatory activity in Wistar albino rat assessed as reduction in carrageenan-induced hind paw volume at 12.5 mg/kg, ip administered 10 mins after carrageenan-challenge measured up to 3 hrs; type: functional; conditions: route intraperitoneal

Structure (SMILES)	inhibition in vivo at 12.5 mg/kg [%]
Oc1ccc(-c2ccccc2-c2nc3ccccc3o2)cc1Cl	68.3
Cc1ccc(-c2cc(C(F)(F)F)nn2-c2ccc(S(N)(=O)=O)cc2)cc1 [CELECOXIB]	60.6
CS(=O)(=O)c1ccc(-c2ccccc2-c2nc3ccccc3o2)cc1	62.5
O=C(O)Cc1ccccc1Nc1c(Cl)cccc1Cl [DICLOFENAC]	67.3
COc1ccc(-c2ccccc2-c2nc3ccccc3o2)cc1Cl	53.9

test system: Rattus norvegicus; experiment: Antiinflammatory activity in Wistar albino rat assessed as reduction in carrageenan-induced hind paw volume at 25 mg/kg, ip administered 10 mins after carrageenan-challenge measured up to 3 hrs; type: functional; conditions: route intraperitoneal

Structure (SMILES)	inhibition in vivo at 25 mg/kg [%]
Oc1ccc(-c2ccccc2-c2nc3ccccc3o2)cc1Cl	82.7
Cc1ccc(-c2cc(C(F)(F)F)nn2-c2ccc(S(N)(=O)=O)cc2)cc1 [CELECOXIB]	74.6
CS(=O)(=O)c1ccc(-c2ccccc2-c2nc3ccccc3o2)cc1	75
O=C(O)Cc1ccccc1Nc1c(Cl)cccc1Cl [DICLOFENAC]	84.6
COc1ccc(-c2ccccc2-c2nc3ccccc3o2)cc1Cl	64.4

molecular target: T2, Prostaglandin G/H synthase 1 (Ovis aries, UniProt P05979); experiment: Inhibition of ovine COX1 using arachidonic acid as substrate; conditions: not given
T2 sequence (P05979 whole entry): T1 sequence (whole entry)

IC50 [µM]	Structure (SMILES)
46.2	Oc1ccc(-c2ccccc2-c2nc3ccccc3o2)cc1Cl
45.1	CS(=O)(=O)c1ccc(-c2ccccc2-c2nc3ccccc3o2)cc1
46.8	COc1ccc(-c2ccccc2-c2nc3ccccc3o2)cc1Cl

molecular target: T3, Prostaglandin G/H synthase 2 (Homo sapiens, UniProt P35354); experiment: Inhibition of human recombinant COX2 using arachidonic acid as substrate; conditions: not given
T3 sequence (P35354 whole entry): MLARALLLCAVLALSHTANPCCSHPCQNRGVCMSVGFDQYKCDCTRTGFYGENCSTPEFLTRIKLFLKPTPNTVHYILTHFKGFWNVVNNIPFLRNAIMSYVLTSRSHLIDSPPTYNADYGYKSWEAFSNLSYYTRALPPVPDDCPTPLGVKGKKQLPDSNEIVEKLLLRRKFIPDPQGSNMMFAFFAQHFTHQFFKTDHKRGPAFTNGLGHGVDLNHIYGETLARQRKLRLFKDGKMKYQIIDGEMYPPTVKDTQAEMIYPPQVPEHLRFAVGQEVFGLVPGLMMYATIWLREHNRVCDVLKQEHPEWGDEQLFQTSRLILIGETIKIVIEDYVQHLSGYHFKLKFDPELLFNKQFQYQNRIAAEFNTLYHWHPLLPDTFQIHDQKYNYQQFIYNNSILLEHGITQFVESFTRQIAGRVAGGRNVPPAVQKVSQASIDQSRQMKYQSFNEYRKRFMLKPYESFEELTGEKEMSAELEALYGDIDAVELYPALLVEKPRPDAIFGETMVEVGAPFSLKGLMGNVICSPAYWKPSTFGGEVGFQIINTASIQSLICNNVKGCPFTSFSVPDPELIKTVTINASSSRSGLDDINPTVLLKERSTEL

IC50 [µM]	Structure (SMILES)
0.41	Oc1ccc(-c2ccccc2-c2nc3ccccc3o2)cc1Cl
1.34	CS(=O)(=O)c1ccc(-c2ccccc2-c2nc3ccccc3o2)cc1
0.67	COc1ccc(-c2ccccc2-c2nc3ccccc3o2)cc1Cl

test system: not listed separately; experiment: Selectivity for human recombinant COX2 to ovine COX1; conditions: not given

Structure (SMILES)	Selectivity ratio
FC(F)(F)c1ccc(-c2ccccc2-c2nc3ccccc3o2)cc1	3.38
O=Cc1ccc(-c2ccccc2-c2nc3ccccc3o2)cc1	8.81
CS(=O)(=O)c1ccc(-c2ccccc2-c2nc3ccccc3o2)cc1	6.96
c1ccc(-c2ccccc2-c2nc3ccccc3o2)cc1	0.44
N#Cc1ccc(-c2ccccc2-c2nc3ccccc3o2)cc1	4.83
Clc1cc(-c2ccccc2-c2nc3ccccc3o2)ccc1OCc1ccccc1	1.65
CSc1ccc(-c2ccccc2-c2nc3ccccc3o2)cc1	10.7
COc1cccc(-c2ccccc2-c2nc3ccccc3o2)c1OC	0.8
COc1ccc(-c2ccccc2-c2nc3ccccc3o2)cc1OC1CCCC1	0.87

Now from value to molecule:

Selectivity ratio	Structure (SMILES)
1.57	Fc1ccc(-c2ccccc2-c2nc3ccccc3o2)cc1
15.5	CC(C)Oc1ccc(-c2ccccc2-c2nc3ccccc3o2)cc1Cl
12.6	Oc1ccc(-c2ccccc2-c2nc3ccccc3o2)cc1Cl
0.78	COc1ccc(-c2ccccc2-c2nc3ccccc3o2)cc1
1.49	COc1ccc(-c2ccccc2-c2nc3ccccc3o2)cc1OC
12.6	COc1ccc(-c2ccccc2-c2nc3ccccc3o2)cc1Cl

molecular target: T4, Prostaglandin G/H synthase 2 (Homo sapiens) (UniProt P35354); conditions: at 10 µM
T4 sequence (whole entry): T3 sequence (P35354 whole entry)
Description: Inhibition of human recombinant COX2 using arachidonic acid as substrate at 10 uM

Structure (SMILES)	inhibition [%]
FC(F)(F)c1ccc(-c2ccccc2-c2nc3ccccc3o2)cc1	11.7
O=Cc1ccc(-c2ccccc2-c2nc3ccccc3o2)cc1	58
CS(=O)(=O)c1ccc(-c2ccccc2-c2nc3ccccc3o2)cc1	75.1
c1ccc(-c2ccccc2-c2nc3ccccc3o2)cc1	10.6
N#Cc1ccc(-c2ccccc2-c2nc3ccccc3o2)cc1	40.9
Clc1cc(-c2ccccc2-c2nc3ccccc3o2)ccc1OCc1ccccc1	17
CSc1ccc(-c2ccccc2-c2nc3ccccc3o2)cc1	43.5
COc1cccc(-c2ccccc2-c2nc3ccccc3o2)c1OC	59.9
COc1ccc(-c2ccccc2-c2nc3ccccc3o2)cc1OC1CCCC1	14.8

The next lines start with the values.

inhibition [%]	Structure (SMILES)
8.46	Fc1ccc(-c2ccccc2-c2nc3ccccc3o2)cc1
33.9	CC(C)Oc1ccc(-c2ccccc2-c2nc3ccccc3o2)cc1Cl
94.9	Oc1ccc(-c2ccccc2-c2nc3ccccc3o2)cc1Cl
14.8	COc1ccc(-c2ccccc2-c2nc3ccccc3o2)cc1
86.6	COc1ccc(-c2ccccc2-c2nc3ccccc3o2)cc1OC
81.4	COc1ccc(-c2ccccc2-c2nc3ccccc3o2)cc1Cl
